Reference: US20150105252A1, “SUBSTITUTED PYRAZOLES AS HERBICIDES” (E I DU PONT DE NEMOURS AND COMPANY, priority 2013, published 2015)

Columns and labels:
chickweed = test: Test C postemergence; format: in vivo, Stellaria media; conditions: for Plant response rating (scale of 0 to 100 where 0 is no effect and 100 is complete control), Chickweed: 31 g ai/ha, visually evaluated after 13 to 15 days; for Chickweed plant response rating / Plant response rating, Chickweed: postemergence; for Chickweed plant response rating: 62 g ai/ha, scale 0 to 100
Method in brief: (§1)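 Herbicidal effect is expressed as percent visual control (0–100) judged against untreated plants 13 to 15 days after treatment in the greenhouse. Preemergence pots contained seeds in a soil–sand blend; postemergence plants, 2–18 cm tall, grew in peat-based planting medium.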

oat, wild = test: Test C postemergence; format: in vivo, Avena fatua; conditions: for Plant response rating (scale of 0 to 100 where 0 is no effect and 100 is complete control), Oat, Wild: 31 g ai/ha, visually evaluated after 13 to 15 days; for Oat, Wild plant response rating / Plant response rating, Oat, Wild: postemergence; for Oat, Wild plant response rating: 62 g ai/ha, scale 0 to 100
Method in brief: as §1

galium = test: Test C preemergence; format: in vivo, Galium aparine
Method in brief: as §1

foxtail, giant = test: Test C postemergence; format: in vivo, Setaria faberii; conditions: for Plant response rating (scale of 0 to 100 where 0 is no effect and 100 is complete control), Foxtail, Giant: 31 g ai/ha, visually evaluated after 13 to 15 days; for Foxtail, Giant plant response rating / Plant response rating, Foxtail, Giant: postemergence; for Foxtail, Giant plant response rating: 62 g ai/ha, scale 0 to 100
Method in brief: as §1

pigweed = test: Test C postemergence; format: in vivo, Amaranthus retroflexus; conditions: for Plant response rating (scale of 0 to 100 where 0 is no effect and 100 is complete control), Pigweed: 31 g ai/ha, visually evaluated after 13 to 15 days; for Pigweed plant response rating / Plant response rating, Pigweed: postemergence; for Pigweed plant response rating: 62 g ai/ha, scale 0 to 100
Method in brief: as §1

morningglory [1] = test: Test A preemergence; format: in vivo, Ipomoea spp.; conditions: for Morningglory plant response rating (0 to 100 scale): visual injury approx. 10 days after treatment
Method in brief: (§2)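 Visual injury ratings, 0 = no effect to 100 = complete control, taken about 10 days after treatment against untreated controls. Test chemicals, in a non-phytotoxic surfactant-containing solvent, were sprayed onto soil preemergence or onto one- to two-leaf plants (2–10 cm) postemergence, in loam–sand soil under greenhouse conditions.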

wheat = test: Test C postemergence; format: in vivo, Triticum aestivum; conditions: for Plant response rating (scale of 0 to 100 where 0 is no effect and 100 is complete control), Wheat: 31 g ai/ha, visually evaluated after 13 to 15 days; for Wheat plant response rating / Plant response rating, Wheat: postemergence; for Wheat plant response rating: 62 g ai/ha, scale 0 to 100
Method in brief: as §1

morningglory [2] = test: Test C postemergence; format: in vivo, Ipomoea coccinea
Method in brief: as §1

crabgrass, large = test: Test C preemergence; format: in vivo, Digitaria sanguinalis
Method in brief: as §1

sedge, umbrella = test: Test B flood; format: in vivo, Cyperus difformis; conditions: 250 g ai/ha, visual rating on 0 to 100 scale (0 no effect, 100 complete control), 13 to 15 days
Method in brief: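 Plants were grown to the 2-leaf stage and pots flooded to 3 cm above soil. Compounds were applied directly into the paddy water, with depth kept for the test. After 13–15 days in greenhouse, response was rated visually against controls on a 0 (no effect) to 100 (complete control) scale.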

corn = test: Test A postemergence; format: in vivo, Zea mays
Method in brief: as §2

ragweed = test: Test C postemergence; format: in vivo, Ambrosia elation; conditions: for Plant response rating (scale of 0 to 100 where 0 is no effect and 100 is complete control), Ragweed: 31 g ai/ha, visually evaluated after 13 to 15 days; for Ragweed plant response rating / Plant response rating, Ragweed: postemergence; for Ragweed plant response rating: 62 g ai/ha, scale 0 to 100
Method in brief: as §1

ryegrass, Italian = test: Test C preemergence; format: in vivo, Lolium multiflorum
Method in brief: as §1

[3] = 125 g ai/ha, scale 0 to 100, 0 no effect, 100 complete control
[4] = Preemergence, 16 g ai/ha, scale 0 to 100
[5] = preemergence, 31 g ai/ha, scale 0 to 100 (0 no effect, 100 complete control), 13 to 15 days
[6] = preemergence, 62 g ai/ha, 13 to 15 days, scale 0 to 100, 0 = no effect, 100 = complete control
[7] = preemergence, 125 g ai/ha, scale 0 to 100, 0 is no effect, 100 is complete control
[8] = preemergence, 125 g ai/ha, visual injury, 0 to 100 scale, approx. 10 days
[9] = Postemergence, 500 g ai/ha, visual rating after approx. 10 days, 0 to 100 scale (0 no effect, 100 complete control)
[10] = postemergence, 125 g ai/ha, about 10 days, visual rating on 0 to 100 scale (0 no effect, 100 complete control)
[11] = 250 g ai/ha, scale 0 to 100 (0 no effect, 100 complete control)
[12] = preemergence, 31 g ai/ha, visual rating, scale 0 to 100 (0 no effect, 100 complete control), 13 to 15 days
[13] = preemergence, 62 g ai/ha, scale 0 to 100 (0 no effect, 100 complete control), 13 to 15 days
[14] = preemergence, 500 g ai/ha, visual injury after approx. 10 days, 0 to 100 scale (0 no effect, 100 complete control)
[15] = preemergence, 125 g ai/ha, 13 to 15 days, scale 0 to 100, 0 = no effect, 100 = complete control
[16] = Postemergence, 500 g ai/ha, 0 to 100 scale (0 no effect, 100 complete control)
[17] = preemergence, 250 g ai/ha, scale 0 to 100, 0 is no effect, 100 is complete control

CCONC(=O)c1cc(CC)n(Cc2ccnc(C(F)(F)F)c2)n1 [Compound 77]
Plant response rating (scale of 0 to 100), Chickweed (chickweed; Postemergence, 16 g ai/ha): 50 | Plant response rating (scale of 0 to 100 where 0 is no effect and 100 is complete control), Chickweed (chickweed; Postemergence): 50 | Chickweed plant response rating (chickweed): 55 | Plant response rating, Chickweed (chickweed; [3]): 60 | Plant response rating (scale of 0 to 100), Oat, Wild (oat, wild; Postemergence, 16 g ai/ha): 5 | Plant response rating (scale of 0 to 100 where 0 is no effect and 100 is complete control), Oat, Wild (oat, wild; Postemergence): 5 | Oat, Wild plant response rating (oat, wild): 5 | Plant response rating, Oat, Wild (oat, wild; [3]): 5 | Plant response rating, Galium (galium; [4]): 0 | Galium plant response rating (galium; [5]): 0 | Plant response rating, Galium (galium; [6]): 5 | Galium plant response rating (galium; [7]): 10 | Plant response rating (scale of 0 to 100), Foxtail, Giant (foxtail, giant; Postemergence, 16 g ai/ha): 5 | Plant response rating (scale of 0 to 100 where 0 is no effect and 100 is complete control), Foxtail, Giant (foxtail, giant; Postemergence): 5 | Foxtail, Giant plant response rating (foxtail, giant): 10 | Plant response rating, Foxtail, Giant (foxtail, giant; [3]): 20 | Plant response rating (scale of 0 to 100), Pigweed (pigweed; Postemergence, 16 g ai/ha): 25 | Plant response rating (scale of 0 to 100 where 0 is no effect and 100 is complete control), Pigweed (pigweed; Postemergence): 50 | Pigweed plant response rating (pigweed): 55 | Plant response rating, Pigweed (pigweed; [3]): 60 | Morningglory plant response rating (morningglory [1]; Preemergence, 500 g ai/ha, 0 to 100 scale, 0 no effect, 100 complete control): 50 | Morningglory plant response rating (morningglory [1]; [8]): 20 | Plant response rating (scale of 0 to 100), Wheat (wheat; Postemergence, 16 g ai/ha): 0 | Plant response rating (scale of 0 to 100 where 0 is no effect and 100 is complete control), Wheat (wheat; Postemergence): 0 | Wheat plant response rating (wheat): 5 | Plant response rating, Wheat (wheat; [3]): 5 | Plant response rating (scale of 0 to 100), Morningglory (morningglory [2]; Postemergence, 16 g ai/ha): 10 | Morningglory plant response rating (morningglory [2]; postemergence, 62 g ai/ha, scale 0 to 100): 20 | Plant response rating, Morningglory (morningglory [2]; postemergence, 125 g ai/ha, scale 0 to 100, 0 no effect, 100 complete control): 40 | Plant response rating, Crabgrass, Large (crabgrass, large; [4]): 60 | Crabgrass, Large plant response rating (crabgrass, large; [5]): 85 | Plant response rating, Crabgrass, Large (crabgrass, large; [6]): 100 | Crabgrass, Large plant response rating (crabgrass, large; [7]): 100 | Plant response rating, Sedge, Umbrella (sedge, umbrella): 80 | Corn plant response rating (corn; [9]): 40 | Corn plant response rating (corn; [10]): 30 | Plant response rating (scale of 0 to 100), Ragweed (ragweed; Postemergence, 16 g ai/ha): 5 | Plant response rating (scale of 0 to 100 where 0 is no effect and 100 is complete control), Ragweed (ragweed; Postemergence): 5 | Ragweed plant response rating (ragweed): 10 | Plant response rating, Ragweed (ragweed; [3]): 10

CCc1cc(-c2ccc(C(F)(F)F)cc2)nn1Cc1ccnc(C(F)(F)F)c1 [Compound 110]
Plant response rating (scale of 0 to 100 where 0 is no effect and 100 is complete control), Chickweed (chickweed; Postemergence): 70 | Chickweed plant response rating (chickweed): 70 | Plant response rating, Chickweed (chickweed; [11]): 95 | Plant response rating, Chickweed (chickweed; [3]): 90 | Plant response rating (scale of 0 to 100 where 0 is no effect and 100 is complete control), Oat, Wild (oat, wild; Postemergence): 5 | Oat, Wild plant response rating (oat, wild): 25 | Plant response rating, Oat, Wild (oat, wild; [11]): 35 | Plant response rating, Oat, Wild (oat, wild; [3]): 30 | Plant response rating (scale of 0 to 100), Galium (galium; Preemergence, 250 g ai/ha): 100 | Galium plant response rating (galium; [12]): 50 | Galium plant response rating (galium; [13]): 90 | Plant response rating (scale of 0 to 100 where 0 is no effect and 100 is complete control), Foxtail, Giant (foxtail, giant; Postemergence): 35 | Foxtail, Giant plant response rating (foxtail, giant): 40 | Plant response rating, Foxtail, Giant (foxtail, giant; [11]): 70 | Plant response rating, Foxtail, Giant (foxtail, giant; [3]): 60 | Plant response rating (scale of 0 to 100 where 0 is no effect and 100 is complete control), Pigweed (pigweed; Postemergence): 85 | Pigweed plant response rating (pigweed): 85 | Plant response rating, Pigweed (pigweed; [11]): 98 | Plant response rating, Pigweed (pigweed; [3]): 90 | Morningglory plant response rating (morningglory [1]; [8]): 90 | Morningglory plant response rating (morningglory [1]; [14]): 100 | Plant response rating (scale of 0 to 100 where 0 is no effect and 100 is complete control), Wheat (wheat; Postemergence): 5 | Wheat plant response rating (wheat): 5 | Plant response rating, Wheat (wheat; [11]): 5 | Plant response rating, Wheat (wheat; [3]): 5 | Plant response rating (scale of 0 to 100), Crabgrass, Large (crabgrass, large; Preemergence, 250 g ai/ha): 100 | Crabgrass, Large plant response rating (crabgrass, large; [12]): 95 | Crabgrass, Large plant response rating (crabgrass, large; [13]): 98 | Crabgrass, Large plant response rating (crabgrass, large; [7]): 100 | Plant response rating, Sedge, Umbrella (sedge, umbrella): 80 | Corn plant response rating (corn; [9]): 90 | Corn plant response rating (corn; [10]): 80 | Plant response rating (scale of 0 to 100 where 0 is no effect and 100 is complete control), Ragweed (ragweed; Postemergence): 50 | Ragweed plant response rating (ragweed): 80 | Plant response rating, Ragweed (ragweed; [11]): 80 | Plant response rating, Ragweed (ragweed; [3]): 80

CCNC(=O)c1cc(CCF)n(Cc2ccnc(C(F)(F)F)c2)n1 [Compound 178]
Plant response rating, Ryegrass, Italian (ryegrass, Italian; [4]): 0 | Ryegrass, Italian plant response rating (ryegrass, Italian; [12]): 5 | Ryegrass, Italian plant response rating (ryegrass, Italian; [13]): 5 | Plant response rating, Ryegrass, Italian (ryegrass, Italian; [15]): 15 | Plant response rating, Galium (galium; [4]): 70 | Galium plant response rating (galium; [12]): 90 | Galium plant response rating (galium; [13]): 90 | Plant response rating, Galium (galium; [15]): 95 | Morningglory plant response rating (0 to 100 scale) (morningglory [1]; preemergence, 125 g ai/ha): 80 | Morningglory plant response rating (morningglory [1]; [14]): 100 | Plant response rating, Crabgrass, Large (crabgrass, large; [4]): 30 | Crabgrass, Large plant response rating (crabgrass, large; [12]): 100 | Crabgrass, Large plant response rating (crabgrass, large; [13]): 95 | Plant response rating, Crabgrass, Large (crabgrass, large; [15]): 100 | Plant response rating, Sedge, Umbrella (sedge, umbrella): 85 | Corn plant response rating (corn; [16]): 90 | Corn plant response rating (corn; [10]): 10

CCCc1cc(C(=O)NOC(C)C)nn1Cc1cc(C(F)(F)F)nn1C [Compound 203]
Ryegrass, Italian plant response rating (ryegrass, Italian; [12]): 5 | Ryegrass, Italian plant response rating (ryegrass, Italian; [13]): 60 | Plant response rating, Ryegrass, Italian (ryegrass, Italian; [15]): 90 | Ryegrass, Italian plant response rating (ryegrass, Italian; [17]): 90 | Galium plant response rating (galium; [12]): 100 | Galium plant response rating (galium; [13]): 100 | Plant response rating, Galium (galium; [15]): 100 | Galium plant response rating (galium; [17]): 100 | Morningglory plant response rating (0 to 100 scale) (morningglory [1]; preemergence, 125 g ai/ha): 10 | Crabgrass, Large plant response rating (crabgrass, large; [12]): 80 | Crabgrass, Large plant response rating (crabgrass, large; [13]): 95 | Plant response rating, Crabgrass, Large (crabgrass, large; [15]): 100 | Crabgrass, Large plant response rating (crabgrass, large; [17]): 100 | Plant response rating, Sedge, Umbrella (sedge, umbrella): 95 | Corn plant response rating (corn; [16]): 100 | Corn plant response rating (corn; [10]): 50
